How the values were obtained:
Format in all cases: cell-based
[1] = tested on: SPI1 type III protein secretion of SopE'-'Bla by Salmonella enterica; assay: Primary assay: Type III protein secretion of the chimeric SopE'-'Bla polypeptide by Salmonella enterica; conditions: read-out: SopE IC50(uM)
Method in brief: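 S. enterica grown under SPI1-favouring conditions was induced to express SopE′-′Bla (SopE secretion signal fused to signal-less TEM-1 β-lactamase) and cultured with or without compound for a set time. Secreted reporter was quantified by colorimetric hydrolysis of cell-impermeant nitrocefin added to the cultures.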

[2] = tested on: SPI1 type III protein secretion of SipB by S. enterica; assay: Secondary assay: Type III-dependent protein secretion of the SipB polypeptide by S. enterica; conditions: Salmonella enterica, read-out: SipB IC50(uM)
Description: Secondary assay: Type III-dependent protein secretion of the SipB polypeptide by S. enterica. The SipB protein of S. enterica is another effector of the SPI1 type III protein secretion system from S. enterica. In this cell-based procedure, the Type III-dependent secretion of SipB from the bacterial cytoplasm to the extracellular medium was measured through its reactivity with a cognate mouse monoclonal.
Salmonella enterica cells growing either in the presence or in the absence of inhibitors are induced for the production of SipB. Following an established period of growth the cells are sedimented and the amount of SipB present in the supernatant is quantified with a scanning imager following application of immunoblot techniques. Detection may employ an anti-SipB mouse monoclonal antibody (e.g., obtained from Jorge Galan, SUNY at Stony Brook, N.Y.) followed by treatment with commercially available sheep anti-mouse polyclonal antibody conjugated with horseradish peroxidase. Thereafter the membrane is treated with a peroxidase chemiluminescent substrate and exposed to film for an appropriate exposure time. Inhibition may be measured relative to untreated controls.

[3] = tested on: Type III protein secretion of ExoU by P. aeruginosa PA103; assay: Tertiary assay: Type III-dependent secretion of ExoU by P. aeruginosa PA103; conditions: Pseudomonas aeruginosa, read-out: ExoU IC50(uM)
From the text: Tertiary assay: inhibition of Type III protein secretion of effectors from a Pseudomonas aeruginosa system. Type III protein secretion is used by P. aeruginosa to secrete several essential virulence determinants. One effector of the type III protein secretion system of P. aeruginosa PA 103 is the virulence determinants ExoU.
The amount of Type III-dependent secretion of ExoU by P. aeruginosa PA103 can be determined in a cell-based assay by quantification of the 73.9 kDa ExoU protein secreted into the extracellular medium. Such quantitation can be achieved by growing strain PA 103 in a deferrated medium in the presence of nitrilotriacetic acid (an inducer of Type III protein secretion in P. aeruginosa) and either in the presence or absence of putative inhibitors. After a prolonged growth period, the cells are sedimented and the supernatants concentrated by ammonium sulfate precipitation. The proteins in the resuspended pellets are separated by electrophoresis on SDS-polyacrylamide gels. After staining gels with Colloidal Blue™, the 73.9 kDa ExoU band is quantitated by scanning through an imager. The effects of inhibitors on the intensity of the ExoU band may be measured relative to that of untreated controls.

N#Cc1ccc(-c2nc(C(=O)N[C@@H](CSCc3ccccc3)C(=O)O)cc(N3CCN(c4ccccc4)CC3)n2)cc1 [Compound 25, (R)-3-Benzylsulfanyl-2-{[2-(4-cyanophenyl)-6-(4-phenyl-piperazin-1-yl)-pyrimidine-4-carbonyl]amino}propionic acid]
IC50 [1]: 6.5 µM
IC50 [2]: 51.9 µM
IC50 [3]: 57.2 µM

O=C(N[C@@H](CSCc1ccccc1)C(=O)O)c1cc(N2CCN(c3ccccc3)CC2)nc(Cl)n1 [Compound 26, (R)-3-Benzylsulfanyl-2-{[2-chloro-6-(4-phenyl-piperazin-1-yl)pyrimidine-4-carbonyl]amino}propionic acid]
IC50 [1]: 50.1 µM
IC50 [2]: 46.8 µM
IC50 [3]: > 100 µM

CC1CCN(c2nc(C(=O)N[C@@H](CSCc3ccccc3)C(=O)O)cc(N3CCN(c4ccccc4)CC3)n2)CC1 [Compound 27, (R)-3-Benzylsulfanyl-2-{[2-(4-methylpiperidin-1-yl)-6-(4-phenyl-piperazin-1-yl)-pyrimidine-4-carbonyl]amino}propionic acid]
IC50 [1]: 5.3 µM
IC50 [2]: 8.8 µM
IC50 [3]: > 100 µM

C[C@@H](OCc1ccccc1)[C@H](NC(=O)c1cc(N2CCCCC2)nc(N2CCC(c3ccccc3)CC2)n1)C(=O)O [Compound 30, (2S,3R)-3-Benzyloxy-2-{[2-(4-phenylpiperidin-1-yl)-6-piperidin-1-yl-pyrimidine-4-carbonyl]amino}butyric acid]
IC50 [1]: 4.6 µM
IC50 [2]: 17.9 µM
IC50 [3]: > 100 µM

O=C(N[C@@H](COCc1ccccc1)C(=O)O)c1cc(-c2ccc(Cl)c(Cl)c2)nc(N2CCN(c3ccccc3)CC2)n1 [Compound 32, (S)-3-Benzyloxy-2-{[6-(3,4-dichlorophenyl)-2-(4-phenyl-piperazin-1-yl)-pyrimidine-4-carbonyl]amino}propionic acid]
IC50 [1]: 3.2 µM
IC50 [2]: 5.7 µM
IC50 [3]: 40.7 µM

Cc1cc(C(=O)NC(CSCc2ccccc2)C(=O)O)nc(-c2ccc(-c3ccccc3)cc2)n1 (stereo not drawn) [Compound 35, 3-Benzylsulfanyl-2-[(2-biphenyl-4-yl-6-methyl-pyrimidine-4-carbonyl)-amino]-propionic acid]
IC50 [1]: 17.7 µM
IC50 [2]: 59.2 µM
IC50 [3]: > 100 µM

Cc1cc(C(=O)N[C@@H](COCc2ccccc2)C(=O)O)nc(-c2ccc(-c3ccccc3)cc2)n1 [Compound 36, (S)-3-Benzyloxy-2-[(2-biphenyl-4-yl-6-methyl-pyrimidine-4-carbonyl)amino]-propionic acid]
IC50 [1]: 32.7 µM
IC50 [2]: 79.6 µM
IC50 [3]: > 100 µM

CC1CCN(c2cc(C(=O)N[C@@H](COCc3ccccc3)C(=O)O)nc(-c3ccc(Oc4ccccc4)cc3)n2)CC1 [Compound 38, (S)-3-Benzyloxy-2-{[6-(4-methylpiperidin-1-yl)-2-(4-phenoxyphenyl)pyrimidine-4-carbonyl]amino}propionic acid]
IC50 [1]: 1.3 µM
IC50 [2]: 7.1 µM
IC50 [3]: 82.8 µM

CC1CCN(c2cc(C(=O)NC(Cc3ccc(Cl)cc3)C(=O)O)nc(-c3ccc(Oc4ccccc4)cc3)n2)CC1 (stereo not drawn) [Compound 39, 3-(4-Chlorophenyl)-2-{[6-(4-methylpiperidin-1-yl)-2-(4-phenoxyphenyl)-pyrimidine-4-carbonyl]amino}propionic acid]
IC50 [1]: 1.5 µM
IC50 [2]: 13.2 µM
IC50 [3]: 74.5 µM

CC1CCN(c2cc(C(=O)N[C@@H](CSCc3ccccc3)C(=O)O)nc(-c3ccc(-c4ccccc4)cc3)n2)CC1 [Compound 40, (R)-3-Benzylsulfanyl-2-{[2-biphenyl-4-yl-6-(4-methylpiperidin-1-yl)pyrimidine-4-carbonyl]amino}propionic acid]
IC50 [1]: 5.1 µM
IC50 [2]: 23 µM
IC50 [3]: 61.2 µM

CC1CCN(c2cc(C(=O)N[C@@H](COCc3ccccc3)C(=O)O)nc(-c3ccc(-c4ccccc4)cc3)n2)CC1 [Compound 41, (S)-3-Benzyloxy-2-{[2-biphenyl-4-yl-6-(4-methylpiperidin-1-yl)pyrimidine-4-carbonyl]amino}propionic acid]
IC50 [1]: 2.4 µM
IC50 [2]: 28.6 µM
IC50 [3]: 67.4 µM

CC1CCN(c2cc(C(=O)NC(Cc3ccc(Cl)cc3)C(=O)O)nc(-c3ccc(-c4ccccc4)cc3)n2)CC1 (stereo not drawn) [Compound 42, 2-{[2-Biphenyl-4-yl-6-(4-methylpiperidin-1-yl)pyrimidine-4-carbonyl]amino}-3-(4-chlorophenyl)propionic acid]
IC50 [1]: 4.8 µM
IC50 [2]: 22.3 µM
IC50 [3]: > 100 µM

O=C(NC(Cc1ccc(Cl)cc1)C(=O)O)c1cc(-c2ccc(C(F)(F)F)cc2)nc(N2CCN(c3ccccn3)CC2)n1 (stereo not drawn) [Compound 43, 3-(4-Chlorophenyl)-2-{[2-(4-pyridin-2-yl-piperazin-1-yl)-6-(4-trifluoromethyl-phenyl)pyrimidine-4-carbonyl]amino}propionic acid]
IC50 [1]: 8.1 µM
IC50 [2]: 74.2 µM
IC50 [3]: > 100 µM

CC1CCN(c2nc(C(=O)N[C@@H](COCc3ccccc3)C(=O)O)cc(N3CCN(c4nccc(C(F)(F)F)n4)CC3)n2)CC1 [Compound 47, (S)-3-Benzyloxy-2-({2-(4-methylpiperidin-1-yl)-6-[4-(4-trifluoromethylpyrimidin-2-yl)piperazin-1-yl]pyrimidine-4-carbonyl}amino)propionic acid]
IC50 [1]: 4.5 µM
IC50 [2]: 10.4 µM
IC50 [3]: > 100 µM

CC1CCN(c2nc(C(=O)NC(Cc3ccc(Cl)cc3)C(=O)O)cc(N3CCN(c4nccc(C(F)(F)F)n4)CC3)n2)CC1 (stereo not drawn) [Compound 48, 3-(4-Chlorophenyl)-2-({2-(4-methylpiperidin-1-yl)-6-[4-(4-trifluoromethyl-pyrimidin-yl)piperazin-1-yl]pyrimidine-4-carbonyl}amino)propionic acid]
IC50 [1]: 1.3 µM
IC50 [2]: 40 µM
IC50 [3]: > 100 µM

CN(C)c1ccc(-c2nc(C(=O)N[C@@H](COCc3ccccc3)C(=O)O)cc(N3CCN(c4nccc(C(F)(F)F)n4)CC3)n2)cc1 [Compound 49, (S)-3-Benzyloxy-2-({2-(4-dimethylaminophenyl)-6-[4-(4-trifluoromethylpyrimidin-2-yl)piperazin-1-yl]pyrimidine-4-carbonyl}amino)propionic acid]
IC50 [1]: 5.9 µM
IC50 [2]: 7.2 µM
IC50 [3]: 92.6 µM

O=C(N[C@@H](COCc1ccccc1)C(=O)O)c1cc(N2CCN(c3nccc(C(F)(F)F)n3)CC2)nc(-c2ccc([N+](=O)[O-])cc2)n1 [Compound 51, (S)-3-Benzyloxy-2-({2-(4-nitrophenyl)-6-[4-(4-trifluoromethylpyrimidin-2-yl)-piperazin-1-yl]pyrimidine-4-carbonyl}amino)propionic acid]
IC50 [1]: 1.9 µM
IC50 [2]: 84.5 µM
IC50 [3]: 55 µM

O=C(NC(Cc1ccc(Cl)cc1)C(=O)O)c1cc(N2CCN(c3nccc(C(F)(F)F)n3)CC2)nc(-c2ccc([N+](=O)[O-])cc2)n1 (stereo not drawn) [Compound 53, 3-(4-Chlorophenyl)-2-({2-(4-nitrophenyl)-6-[4-(4-trifluoromethylpyrimidin-2-yl)-piperazin-1-yl]pyrimidine-4-carbonyl}amino)propionic acid]
IC50 [1]: 1.2 µM
IC50 [2]: 84.6 µM
IC50 [3]: 40.4 µM

O=C(NC(Cc1ccc(Cl)cc1)C(=O)O)c1cc(N2CCN(c3nccc(C(F)(F)F)n3)CC2)nc(-c2ccc(F)cc2)n1 (stereo not drawn) [Compound 56, 3-(4-Chlorophenyl)-2-({2-(4-fluorophenyl)-6-[4-(4-trifluoromethylpyrimidin-2-yl)-piperazin-1-yl]pyrimidine-4-carbonyl}amino)propionic acid]
IC50 [1]: 2.2 µM
IC50 [2]: 4.5 µM
IC50 [3]: 55.4 µM

O=C(N[C@@H](COCc1ccccc1)C(=O)O)c1cc(N2CCN(c3nccc(C(F)(F)F)n3)CC2)nc(-c2ccoc2)n1 [Compound 60, (S)-3-Benzyloxy-2-({2-furan-3-yl-6-[4-(4-trifluoromethylpyrimidin-2-yl)piperazin-1yl]-pyrimidine-4-carbonyl}amino)propionic acid]
IC50 [1]: 16.4 µM
IC50 [2]: 15.6 µM
IC50 [3]: > 100 µM

O=C(N[C@@H](CSCc1ccccc1)C(=O)O)c1cc(N2CCN(c3nccc(C(F)(F)F)n3)CC2)nc(-c2ccoc2)n1 [Compound 61, (R)-3-Benzylsulfanyl-2-({2-furan-3-yl-6-[4-(4-trifluoromethylpyrimidin-2-yl)-piperazin-1-yl]pyrimidine-4-carbonyl}amino)propionic acid]
IC50 [1]: 10.2 µM
IC50 [2]: 43.2 µM
IC50 [3]: > 100 µM

Reference: patent US20050282824A1, “Substituted pyrimidines as inhibitors of bacterial type III protein secretion systems” (priority 2004, published 2005)
